Read-outs that look alike come from different tables or passages of the source.
Test system: T1, synaptosomal proteome
T1 construct: from tissue; host or cells: brain synaptosomes of male C57/B6 mice
Type: binding, mouse
Procedure: Synaptosomes were resuspended to 1 mg of protein/ml in HEPES buffer medium (in mM: 140 NaCl, 5 KCl, 5 NaHCO3, 1.2 NaH2PO4, 1 MgCl2, 10 glucose, and 10 HEPES (pH 7.4)). […] The samples were allowed to equilibrate for 5 min before being transferred to a parafilm-sealed 1-mm path length quartz cuvette. The sample was then irradiated for 20 min at a peak bandwidth of 350 nm (Rayonet RPR-3500 lamp) ∼6 cm from the light source. Non-irradiated samples were left in the dark at ambient temperature (22–25 °C) for 20 min. All remaining procedures were conducted with restricted light exposure.
To 750 μg of photolabeled or control synaptosome samples, 40 μl of 10% SDS and 2 μl of 5 mM DTT in water were added. Samples were then vortexed, heated for 10 min at 65 °C, and then briefly cooled. Final concentrations of 150 μM azide-biotin (Click Chemistry Tools), 2 mM tris(3-hydroxypropyltriazolylmethyl)amine (Sigma), 1 mM ascorbic acid (Sigma), and 1 mM CuSO4·5H2O (Sigma) were added to each sample and vortexed vigorously. The samples were left in the dark at ambient temperature (22–25 °C) for 1 h with mild agitation. Directly to each sample 4× volume chilled methanol, 1.5× chilled chloroform, and 3× chilled double distilled H2O were added. Samples were vortexed vigorously and centrifuged at 1,400 × g for 30 min at 4 °C. Both liquid layers were carefully removed, and the protein pellet was washed with 2 ml of 1:1 (v/v) chilled methanol/chloroform. Samples were centrifuged at 3,500 × g for 30 min at 4 °C. Protein pellets were briefly air-dried before further processing.
750 μg of biotin-conjugated protein sample was resuspended in 500 μl of 25 mM NH4HCO3 and 6 M urea in water. Next, 150 μl of 5% Triton X-100 in water, 50 μl of 10% SDS in water, and 1.5 μl of 0.5 M DTT were added. The samples were heated for 15 min at 65 °C. After briefly cooling, 14 μl of 0.5 M iodoacetamide in water was added, and the sample was left in the dark for 45 min. […] The supernatant was diluted to 4 ml with PBS, and 2 ml of PBS containing 100 μl of 50% streptavidin-agarose resin (Thermo Scientific) was added. Biotinylated proteins within the sample were captured over resin overnight at 4 °C with mild agitation. The resin was first washed with 6 ml of 1% SDS in PBS, and then 7 ml of 0.1 M urea in PBS followed by 10 ml of PBS. The resin underwent a final wash with 0.9 ml of 50 mM Tris-HCl and 1 mM CaCl2 in water (pH 8.0) and then resuspended in 200 μl of 50 mM Tris-HCl, 1 mM CaCl2 in water (pH 8.0), and 2 μg of porcine sequencing grade trypsin (Promega). Samples were digested overnight at 37 °C. Samples were then centrifuged at 2,000 × g for 4 min, and digest supernatant was decanted. Beads were washed in 100 μl of PBS centrifuged at 5,200 × g for 5 min, and the wash was combined with the digest supernatant. To the combined sample, trifluoroacetic acid (TFA) was added to 0.4% (v/v) or until pH <2. The sample was desalted with Oasis C18 10-mg columns (Waters) as described previously ([66]). The eluted sample was dried by speed vac and resuspended in 0.1 M HEPES buffer (pH 8.5). […] Appropriate corresponding TMTsixplex^TM-labeled samples were pooled and dried by speed vac. The combined samples were resuspended in 0.5% acetic acid in water and pH-corrected with acetic acid until pH was <2. 40 μg of protein was desalted with C18 stage tips prepared in-house and dried by speed vac.
Samples were resuspended in 10 mM KH2PO4 (pH 2.6), 30% acetonitrile (v/v) in water, and fractionated by off-line strong cation exchange chromatography prior to mass spectrometry (MS) analysis similar to as reported previously ([66]). The full synaptosome proteome control was prepared similarly without TMTsixplex^TM labeling.
All TMT samples were analyzed with three-stage mass spectrometry (MS3) TMTsixplex^TM quantification workflow as described previously ([34]).

[1] = protein A2AGI3 Neuroligin-3 (Nlgn3)
[2] = protein A2AWI7 Endophilin-B2 (Sh3glb2)
[3] = protein D3Z5T2 Armadillo repeat-containing protein 10 (Armc10)
[4] = protein E9Q3V6 Septin-2 (Sept2)
[5] = protein F7C846 Metaxin-1 (Mtx1)
[6] = protein F8WGD9 1-acyl-sn-glycerol-3-phosphate acyltransferase epsilon (Agpat5)
[7] = protein G3UYZ1 Immunoglobulin superfamily member 8 (Igsf8)
[8] = protein G5E829 Plasma membrane calcium-transporting ATPase 1 (Atp2b1)
[9] = protein H3BL44 Calcium-transporting ATPase (Atp2c1)
[10] = protein O09111 NADH dehydrogenase [ubiquinone] 1 beta subcomplex subunit 11, mitochondrial (Ndufb11)
[11] = protein O35114 Lysosome membrane protein 2 (Scarb2)
[12] = protein O35526 Syntaxin-1A (Stx1a)
[13] = protein O35874 Neutral amino acid transporter A (Slc1a4)
[14] = protein O35963 Ras-related protein Rab-33B (Rab33b)
[15] = protein O55022 Membrane-associated progesterone receptor component 1 (Pgrmc1)

CC(C)c1cccc(C(C)C)c1O [propofol, 2,6-diisopropylphenol, reference compound]
% propofol protection (D3Z2J6 Tmx2): 70% | % propofol protection (E9PUL5 Prrt2): 72% | Log2( Mean 'UV/ UV+propofol') (E9PUL5 Prrt2): 1.75 | % propofol protection (P07724 Alb): 75% | Log2( Mean 'UV/ UV+propofol') (P07724 Alb): 1.84 | % propofol protection (P12787 Cox5a): 76% | % propofol protection (P16332 Mut): 72% | Log2( Mean 'UV/ UV+propofol') (P16332 Mut): 1.79 | Log2( Mean 'UV/ UV+propofol') (P23242 Gja1): 1.15 | Log2( Mean 'UV/ UV+propofol') (P35279 Rab6a): 1.22 | % propofol protection (P51150 Rab7a): 73% | Log2( Mean 'UV/ UV+propofol') (P51150 Rab7a): 1.72 | % propofol protection (P54071 Idh2): 71% | Log2( Mean 'UV/ UV+propofol') (P54071 Idh2): 1.75 | Log2( Mean 'UV/ UV+propofol') (P61620 Sec61a1): 1.22 | % propofol protection (P62812 Gabra1): 70% | Log2( Mean 'UV/ UV+propofol') (P63037 Dnaja1): 1.24 | % propofol protection (P63044 Vamp2): 71% | % propofol protection (P63213 Gng2): 75% | Log2( Mean 'UV/ UV+propofol') (P63213 Gng2): 1.98 | % propofol protection (P97445 Cacna1a): 70% | % propofol protection (Q5SW88 Rab1): 73% | Log2( Mean 'UV/ UV+propofol') (Q5SW88 Rab1): 1.71 | % propofol protection (Q8BLF1 Nceh1): 71% | Log2( Mean 'UV/ UV+propofol') (Q8BLF1 Nceh1): 1.72 | % propofol protection (Q8BXV2 Bri3bp): 75% | Log2( Mean 'UV/ UV+propofol') (Q8BXV2 Bri3bp): 1.93 | % propofol protection (Q8C3X2 Ccdc90b): 75% | Log2( Mean 'UV/ UV+propofol') (Q8C3X2 Ccdc90b): 1.94 | % propofol protection (Q8K1Z0 Coq9): 73% | Log2( Mean 'UV/ UV+propofol') (Q8K1Z0 Coq9): 1.79 | % propofol protection (Q8K221 Arfip2): 70% | % propofol protection (Q8R5J9 Arl6ip5): 75% | Log2( Mean 'UV/ UV+propofol') (Q8R5J9 Arl6ip5): 1.93 | % propofol protection (Q9CQQ7 Atp5f1): 70% | % propofol protection (Q9CQS4 Slc25a46): 76% | Log2( Mean 'UV/ UV+propofol') (Q9CXJ4 Abcb8): 1.18 | % propofol protection (Q9CZS1 Aldh1b1): 75% | Log2( Mean 'UV/ UV+propofol') (Q9CZS1 Aldh1b1): 1.96 | % propofol protection (Q9D2P8 Mobp): 76% | Log2( Mean 'UV/ UV+propofol') (Q9D5T0 Atad1): 1.22 | % propofol protection (Q9D6D0 Slc25a27): 75% | % propofol protection (Q9D6K8 Fundc2): 71% | Log2( Mean 'UV/ UV+propofol') (Q9D6K8 Fundc2): 1.61 | % propofol protection (Q9DAS9 Gng12): 76% | % propofol protection (Q9DC70 Ndufs7): 70% | Log2( Mean 'UV/ UV+propofol') (Q9EP69 Sacm1l): 1.23 | % propofol protection (Q9WV54 Asah1): 72% | Log2( Mean 'UV/ UV+propofol') (Q9WV54 Asah1): 1.72 | Log2( Mean 'UV/ UV+propofol') (Q9Z2I0 Letm1): 1.22 | % propofol protection (Q99J08 Sec14l2): 72% | Log2( Mean 'UV/ UV+propofol') (Q99J08 Sec14l2): 1.67 | Log2( Mean 'UV/ UV+propofol') (Q99JY8 Ppap2b): 1.22 | % propofol protection (Q00915 Rbp1): 75% | Log2( Mean 'UV/ UV+propofol') (Q00915 Rbp1): 1.96 | % propofol protection (Q64133 Maoa): 73% | Log2( Mean 'UV/ UV+propofol') (Q64133 Maoa): 1.78 | % propofol protection [1]: 58% | Log2( Mean 'UV/ UV+propofol') [1]: 1.22 | % propofol protection [2]: 56% | Log2( Mean 'UV/ UV+propofol') [2]: 1.04 | % propofol protection [3]: 55% | Log2( Mean 'UV/ UV+propofol') [3]: 1.05 | % propofol protection [4]: 54% | Log2( Mean 'UV/ UV+propofol') [4]: 1.08 | % propofol protection [5]: 55% | Log2( Mean 'UV/ UV+propofol') [5]: 1.11 | % propofol protection [6]: 57% | Log2( Mean 'UV/ UV+propofol') [6]: 1.12 | % propofol protection [7]: 52% | Log2( Mean 'UV/ UV+propofol') [7]: 0.97 | % propofol protection [8]: 55% | Log2( Mean 'UV/ UV+propofol') [8]: 1.01 | % propofol protection [9]: 51% | Log2( Mean 'UV/ UV+propofol') [9]: 0.88 | % propofol protection [10]: 56% | Log2( Mean 'UV/ UV+propofol') [10]: 1.15 | % propofol protection [11]: 53% | Log2( Mean 'UV/ UV+propofol') [11]: 1.00 | % propofol protection [12]: 57% | Log2( Mean 'UV/ UV+propofol') [12]: 1.15 | % propofol protection [13]: 53% | Log2( Mean 'UV/ UV+propofol') [13]: 1.03 | % propofol protection [14]: 55% | Log2( Mean 'UV/ UV+propofol') [14]: 1.06 | % propofol protection [15]: 51% | Log2( Mean 'UV/ UV+propofol') [15]: 1.00

From paper PMC5034043 (The Journal of Biological Chemistry, 2016)
